Reference: paper PMC9369794 (Molecules, 2022)

Experiments:
[1] = TEAC assay using ABTS radical; conditions: 6 min, ratio of slopes to trolox (melatonin dissolved in EtOH); for TEAC from DMSO: stock in DMSO diluted with PBS pH 7.4, 37 °C; for TEAC from THF: stock in THF diluted with PBS pH 7.4, 37 °C
Procedure: This method uses a redox reaction between ABTS^•+ radical cation and the examined antioxidants, which act as the reducing agents. […] As the carotenoids and the conjugates are poorly soluble in water, they were dissolved first either in small amounts of freshly distilled tetrahydrofuran (THF) or in dimethylsulfoxide (DMSO), and these stock solutions were diluted with phosphate-buffered saline (PBS) to the final nominal concentration.
The TEAC values were determined in isotonic phosphate buffer of pH 7.4. The buffer solution was made by dissolving 9.55 g of DPBS powder in distilled water to form 1L of solution (composition: 0.138 M NaCl, 0.0027 M KCl, 0.0081 M Na2HPO4, 0.0015 M KH2PO4). The assay was performed according to a literature process with slight modifications. The ABTS^•+ radical cation was produced by reacting 7 mM 2,2′-azino-bis(3-ethylbenzothiazoline-6-sulfonic acid) and 2.45 mM potassium persulfate in water. The stock ABTS^•+ solution was prepared 12–16 h before the experiments, and stored at room temperature in dark. The absorbance of the ABTS^•+ solution was set to 0.70 ± 0.05 at 734 nm by a ca. 100-fold dilution with phosphate-buffered saline (PBS). […] The stock solutions were diluted with PBS such that equal amounts of the diluted solutions were added to the ABTS^•+ reagent to obtain final antioxidants concentrations of 0.3125, 0.625, 1.25, 2.50, 3.75, 5 μM, respectively. In the blank (0 μM), the solutions of the antioxidants were substituted with THF or DMSO.
The antioxidants were incubated with ABTS^•+ solution at 37 °C for 6 min. During the reaction of ABTS^•+ with the antioxidants the absorbance of the solution decreases. The percentage inhibition of absorbance at 734 nm was calculated as (A0 − Aantioxidant)/A0, where A0 is the absorbance of the ABTS^•+ solution and Aantioxidant is the absorbance measured after the addition of the antioxidant. The determinations were carried out at each concentration in triplicate. The calculated values were plotted against the final concentration of the antioxidants. The slopes of the curves were compared with that for trolox, the TEAC value is the ratio of the slopes for the antioxidant and for trolox.

Water dispersibility = assay type: physicochemical; conditions: distilled water, sonication
Procedure: About 2 mg of the examined substance was dispersed in 40 mL of distilled water and the suspension was sonicated for 2 min. The addition of water was continued with 10 mL portions, after each portion the mixture was sonicated for 2 min. This process was continued till a homogenous solution was observed by naked eye. Then, the solution was let to stand for an hour to inspect any precipitate formation, but no changes occurred in any of the cases.

[2] = Hydrodynamic diameter and colloidal stability of aggregates by dynamic light scattering; assay type: physicochemical; conditions: for mean size (hydrodynamic diameter) / zeta potential: 37 °C; for PDI: sd^2/mean size^2
Procedure: In contrary, all spectra gave a hypsochromic shift and loss of fine-structure when the DMSO solutions were diluted with PBS, which refers to the formation of H-type (card-pack) aggregates (Figures S1–S12). Since DMSO-containing aqueous systems are more suitable for biological studies, we examined these solution by dynamic light scattering (DLS) spectroscopy to gain more information about the particles. The concentrations of the examined solutions were the same as used in the ABTS/TEAC measurements (0.3125–5.00 μM, see next section).
Size determination of aggregates and the colloidal stability of the sample dispersions were determined by dynamic light scattering measurements, where the hydrodynamic diameter of particles, and zeta potential values were collected. The number-weighted size distribution indicated one main peak in each case, the polydispersity index (PDI) was calculated as sd^2/mean size^2. For the particle size analysis Malvern Zetasizer Nano S instrument and for the zeta potential determination Malvern Zetasizer Nano Z instrument were used (Malvern Panalytical Ltd., Great Malvern, Worcestershire, UK). The measurements were carried out in autocorrelation mode, and the following parameters were kept constant: scattering angle 173°, attenuator 11 and its factor 0.0146, measurement position 4.65 mm. The concentrations of sample dispersions were between 0.3125 and 5 µM. The dispersion medium was PBS. Each samples was examined after 6 min incubation period at 37 °C.

[3] = Study of aggregation by UV-Vis spectrophotometry; assay type: physicochemical; conditions: for change of UV spectrum with increasing ratio of PBS: starting from THF solutions; for type of aggregates formed: from THF:aqueous solutions
Description: It has been known for a long while that carotenoids or their derivatives can be prone to supramolecular organization in water or water-organic solvent mixtures. This behaviour is especially interesting because this higher organization can modulate or alter biological properties of carotenoids, as well [40]. A tendency to form supramolecular structures can be tested by recording the UV spectra in an organic solvent and increasing the ratio of water in the sample. […] We have some recent experience of such behaviour of carotenoid-flavonoid conjugates.
All of our adducts were tested with the method above using tetrahydrofurane (THF) or dimethylsulfoxide (DMSO) with increasing ratio of phosphate-buffered saline (PBS), which was the medium of the antioxidant measurements. […]
1. Study of Aggregation by UV-Vis Spectrophotometry
Starting from THF solutions: each conjugate was dissolved in freshly distilled THF and the solutions were diluted
either with THF or THF-PBS mixtures to obain final solutions of identical carotenoid concentration. […]
Figure S1. UV-spectra of 8’-apo-β-carotenol succinate ( 6) ( a) in THF and in THF-PBS mixtures ( 1:1 , 1:3); (b) in DMSO
Figure S2. UV-spectra of zeaxanthin bissuccinate ( 7) ( a) in THF and in THF-PBS mixtures ( 1:1 , 1:3); (b) in DMSO and
Figure S3. UV-spectra of zeaxanthin monosuccinate ( 11) ( a) in THF and in THF-PBS mixtures ( 1:1 , 1:3); (b) in DMSO […]

[4] = FRAP assay for the antioxidant capacity; design: key to FRAP: slope of concentration-absorbance line divided by Trolox slope; conditions: stock in THF, acetate buffer pH 3.0, 37 °C, 15 min; ratio of slopes to trolox (melatonin in EtOH)
Procedure: In the FRAP method the antioxidant reduces Fe^3+ to Fe^2+ in an acidic medium. These experiments were performed in an acetate buffer of pH 3.0, the stock solutions of the examined antioxidants were prepared in THF. The antioxidant capacities were compared to that of Trolox as a standard, just like in the ABTS assays.
A modified literature process was used. The FRAP reagent should also be prepared freshly each day. 2,4,6-Tris(2-pyridyl)-s-triazin (TPTZ) was dissolved in a 200 mM HCl solution and diluted with water to get a final 40 mM HCl and 10 mM TPTZ concentration. For the preparation of the FRAP reagent 30 mL of 20 mM FeCl3 solution and 30 mL of 10 mM TPTZ solution were mixed, and 300 mL of 300 mM acetate buffer with pH 3.0 was added (a pH lower than usual was used to avoid the precipitation of the TPTZ). The FRAP reagent was incubated at 37 °C for 15 min. 150 μL of antioxidant dissolved in THF was mixed with 2.85 mL FRAP reagent solution, and incubated at 37 °C for 15 min in dark. Measurements were carried out at each antioxidant concentration (0, 7.5; 10; 12.5; 15; 17.5 μM final concentration) in triplicate. In the 0 μM solution the antioxidant solution was substituted with acetate buffer (pH 3.0). The FRAP was determined at 600 nm: the absorbance values were plotted as a function of concentration of the sample compounds and that of Trolox for the standard reference data. The FRAP values were calculated as in the ABTS assays, i.e., the slope of the concentration-absorbance lines for the carotenoid derivatives was divided by that for the trolox.

[5] = 0.3125 μM in PBS from DMSO stock
[6] = 0.625 μM in PBS from DMSO stock

Water Dispersibility (Water dispersibility)	mean size (hydrodynamic diameter) [2, 5] [nm]	zeta potential [2, 5] [mV]	PDI ([2]; 0.3125 μM in PBS)	mean size (hydrodynamic diameter) [2, 6] [nm]	zeta potential [2, 6] [mV]	PDI ([2]; 0.625 μM in PBS)	mean size (hydrodynamic diameter) ([2]; 1.25 μM in PBS from DMSO stock) [nm]	zeta potential ([2]; 1.25 μM in PBS from DMSO stock) [mV]	PDI ([2]; 1.25 μM in PBS)	zeta potential ([2]; 2.5 μM in PBS from DMSO stock) [mV]	zeta potential ([2]; 3.75 μM in PBS from DMSO stock) [mV]	mean size (hydrodynamic diameter) ([2]; 5 μM in PBS from DMSO stock) [nm]	zeta potential ([2]; 5 μM in PBS from DMSO stock) [mV]	PDI ([2]; 5 μM in PBS)	change of UV spectrum with increasing ratio of PBS [3]	mean size (hydrodynamic diameter) ([2]; 2.5 μM in PBS from DMSO stock) [nm]	Compound	TEAC from DMSO [1]	TEAC from THF [1]	FRAP [4]	other results
less than 0.6 mg/100 mL	241.5	22.6	0.0186	10.71	20.1	0.0159	28.78	31.0	0.0354	51.3	2.7	19.31	0.0	0.0298	did not cause much change	–	CC1=C(/C=C/C(C)=C/C=C/C(C)=C/C=C/C=C(C)/C=C/C=C(C)/C=C/C(=O)[C@]2(C)C[C@@H](OC(=O)CCC(=O)O)CC2(C)C)C(C)(C)C[C@H](OC(=O)CCC(=O)O)C1 [Compound 9, Capsanthin bissuccinate]	1.66	2.297	0.189	–
less than 0.3 mg/100 mL	30.98	51.7	0.0256	277.80	123.0	0.0264	25.09	80.5	0.0310	80.6	77.3	150.00	−23.5	0.0297	bathochromic shift	32.93	CC1=C(/C=C/C(C)=C/C=C/C(C)=C/C=C/C=C(C)/C=C/C=C(C)/C=C/C2=C(C)C[C@@H](OC(=O)CCC(=O)O)CC2(C)C)C(C)(C)C[C@H](O)C1 [Compound 11, Zeaxanthin monossuccinate]	0.81	1.056	0.145	PDI ([2]; 2.5 μM in PBS): 0.0420; mean size (hydrodynamic diameter) ([2]; 3.75 μM in PBS from DMSO stock): 17.71 nm; PDI ([2]; 3.75 μM in PBS): 0.1357; type of aggregates formed [3]: J-type (head-to-tail) aggregates
1.5 mg/100 mL	453.5	103.0	0.0235	215.4	44.4	0.0320	263.3	89.6	0.0608	0.0	0.0	29.2	20.3	0.0249	did not cause much change	123.1	CC1=C[C@H](OC(=O)CCC(=O)O)CC(C)(C)[C@H]1/C=C/C(C)=C/C=C/C(C)=C/C=C/C=C(C)/C=C/C=C(C)/C=C/C1=C(C)C[C@@H](OC(=O)CCC(=O)O)CC1(C)C [Compound 10, Lutein bissuccinate]	1.49	2.356	0.184	PDI ([2]; 2.5 μM in PBS): 0.0108; mean size (hydrodynamic diameter) ([2]; 3.75 μM in PBS from DMSO stock): 143.8 nm; PDI ([2]; 3.75 μM in PBS): 0.0121

Compound	Water Dispersibility (Water dispersibility)	mean size (hydrodynamic diameter) [2, 5] [nm]	zeta potential [2, 5] [mV]	PDI ([2]; 0.3125 μM in PBS)	mean size (hydrodynamic diameter) [2, 6] [nm]	zeta potential [2, 6] [mV]	PDI ([2]; 0.625 μM in PBS)	mean size (hydrodynamic diameter) ([2]; 1.25 μM in PBS from DMSO stock) [nm]	zeta potential ([2]; 1.25 μM in PBS from DMSO stock) [mV]	PDI ([2]; 1.25 μM in PBS)	zeta potential ([2]; 2.5 μM in PBS from DMSO stock) [mV]	zeta potential ([2]; 3.75 μM in PBS from DMSO stock) [mV]	mean size (hydrodynamic diameter) ([2]; 5 μM in PBS from DMSO stock) [nm]	zeta potential ([2]; 5 μM in PBS from DMSO stock) [mV]	PDI ([2]; 5 μM in PBS)	change of UV spectrum with increasing ratio of PBS [3]	mean size (hydrodynamic diameter) ([2]; 2.5 μM in PBS from DMSO stock) [nm]	TEAC from DMSO [1]	TEAC from THF [1]	FRAP [4]	other results
COc1ccc2[nH]cc(CCNC(=O)CNC(=O)CCC(=O)O[C@@H]3CC(C)=C(/C=C/C(C)=C/C=C/C(C)=C/C=C/C=C(C)/C=C/C=C(C)/C=C/C4C(C)=C[C@@H](OC(=O)CCC(=O)NCC(=O)NCCc5c[nH]c6ccc(OC)cc56)CC4(C)C)C(C)(C)C3)c2c1 (stereo partly drawn) [Compound 16, Lutein-bismelatonin conjugate]	–	131.20	−12.2	0.2022	51.10	−11.7	0.0673	142.50	−12.5	0.0108	−27.5	−1.4	43.14	−0.5	0.0264	bathochromic shift	91.19	2.40	2.933	0.460	melting point: 123 to 124 °C; PDI ([2]; 2.5 μM in PBS): 0.1585; mean size (hydrodynamic diameter) ([2]; 3.75 μM in PBS from DMSO stock): 39.28 nm; PDI ([2]; 3.75 μM in PBS): 0.1229; type of aggregates formed [3]: J-type (head-to-tail) aggregates
